Measurements from the supplement of paper PMC8967900.

Legend:
Assay in all cases: selective drug sensitivity score (sDSS, relative to normal bone marrow) (sDSS (score)); higher = more potent and effective on the cell line relative to normal bone marrow cells
Conditions in all cases: 72 h
[1] = test system: CCRF-HSB2
[2] = test system: COG-LL-317
[3] = test system: COG-LL-319h
[4] = test system: COG-LL-332h
[5] = test system: COG-LL-355h
[6] = test system: COG-LL-402h
[7] = test system: DND-41
[8] = test system: HAL-01
[9] = test system: HPB-ALL
[10] = test system: JURKAT
[11] = test system: KASUMI-10
[12] = test system: KASUMI-2
[13] = test system: MHH-CALL-3
[14] = test system: NALM-16
[15] = test system: P30-OHKUBO
[16] = test system: PF-382
[17] = test system: RCH-ACV
[18] = test system: REH
[19] = test system: SUP-B15
[20] = test system: TANOUE
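Also: ALL cell lines in 384-well plates, five doses spanning 10,000-fold, each plate scaled between vehicle and 100 µmol/L benzalkonium chloride controls, sDSS an adapted area-under-curve metric.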

Row | SMILES | selective drug sensitivity score [1] | selective drug sensitivity score [2] | selective drug sensitivity score [3] | selective drug sensitivity score [4] | selective drug sensitivity score [5] | selective drug sensitivity score [6] | selective drug sensitivity score [7] | selective drug sensitivity score [8] | selective drug sensitivity score [9] | selective drug sensitivity score [10] | selective drug sensitivity score [11] | selective drug sensitivity score [12] | selective drug sensitivity score [13] | selective drug sensitivity score [14] | selective drug sensitivity score [15] | selective drug sensitivity score [16] | selective drug sensitivity score [17] | selective drug sensitivity score [18] | selective drug sensitivity score [19] | selective drug sensitivity score [20]
1 | CC(=O)[C@]1(O)Cc2c(O)c3c(c(O)c2[C@@H](O[C@H]2C[C@H](N)[C@H](O)[C@H](C)O2)C1)C(=O)c1ccccc1C3=O [Idarubicin] (top concentration 1000 nM) | 12.3 | 13.2 | 16.7 | 10 | 3.14 | 14.9 | 0.34 | 7.24 | 3.14 | 3.34 | 8.14 | 11.5 | 14.6 | -2.56 | 3.94 | 1.24 | 12.7 | 11.8 | 9.74 | -12.6
2 | COc1cc2nccc(Oc3ccc(NC(=O)NC4CC4)c(Cl)c3)c2cc1C(N)=O [Lenvatinib] (top concentration 2500 nM) | 5.06 | -0.24 | 6.16 | 1.66 | -0.24 | 1.56 | -0.24 | 0.76 | -0.24 | -0.24 | 1.86 | -0.14 | -0.24 | -0.24 | -0.14 | -0.24 | 5.36 | -0.24 | 6.46 | -0.24
3 | N#Cc1ccc(C(c2ccc(C#N)cc2)n2cncn2)cc1 [Letrozole] (top concentration 10000 nM) | -0.04 | -0.04 | -0.04 | -0.04 | -0.04 | -0.04 | 1.06 | -0.04 | -0.04 | -0.04 | -0.04 | 0.76 | -0.04 | -0.04 | -0.04 | -0.04 | -0.04 | 4.76 | 0.36 | 1.16
4 | CCNCCS(=O)(=O)NC[C@@]1(c2ccccc2)SC(NC(=O)C(C)(C)C)=NN1C(=O)C(C)(C)C [Litronesib] (top concentration 1000 nM) | 21.3 | 19.5 | 22.4 | 22.1 | 4.44 | 18 | 8.64 | 1.94 | 19.7 | 19.2 | 14.7 | 18.9 | 7.44 | 14.3 | 19.6 | 13.7 | 22.1 | 22.3 | 21.7 | -7.36
5 | CC[C@H](C)C(=O)O[C@H]1C[C@@H](C)C=C2C=C[C@H](C)[C@H](CC[C@@H]3C[C@@H](O)CC(=O)O3)[C@H]21 [Lovastatin] (top concentration 10000 nM) | -0.1 | 3.6 | -0.1 | 0.1 | 0 | -0.1 | -0.1 | 2.5 | -0.1 | 0.1 | -0.1 | -0.1 | 8.4 | -0.1 | 2.5 | 0 | 0.2 | 1 | -0.1 | -0.1
6 | Cn1cc(-c2cnn3c(N)c(Br)c([C@@H]4CCCNC4)nc23)cn1 [MK-8776] (top concentration 2500 nM) | 0.64 | 6.14 | 1.04 | 0.34 | 0.54 | 2.64 | 3.84 | -0.46 | -1.46 | -1.46 | 2.24 | -1.46 | 0.04 | 1.14 | -1.16 | 0.14 | 3.94 | 0.24 | -0.06 | -1.46
7 | Cc1cnc(-c2ccccc2C(C)C)nc1NCc1ccc(-n2ccnn2)cc1 [ML323] (top concentration 10000 nM) | 1.84 | 1.04 | 1.14 | 2.04 | 2.04 | -0.36 | 1.34 | 0.04 | 0.64 | 4.14 | -0.36 | 0.14 | -0.36 | 0.64 | 0.54 | 3.04 | 3.34 | 3.44 | 2.94 | 1.44
8 | O=C(CCNC(=O)c1ccc(OC(F)(F)F)cc1)N[C@@H]1CCCc2ccccc21 [ML390] (top concentration 50000 nM) | 12.2 | 16.8 | 16.9 | 16.1 | 8.6 | 3.2 | 5.4 | 4.9 | 6.5 | 14.8 | 4.1 | 2.9 | -1.2 | 6.6 | 13.6 | 9.8 | 21 | 16.1 | 19.1 | 3.5
9 | CN(C)C(=N)NC(=N)N [Metformin] (top concentration 100000 nM) | -0.02 | -0.02 | -0.02 | -0.02 | -0.02 | -0.02 | 0.08 | -0.02 | -0.02 | -0.02 | -0.02 | -0.02 | -0.02 | -0.02 | -0.02 | -0.02 | -0.02 | 0.08 | -0.02 | -0.02
10 | C[C@H]1C[C@@H]2[C@H]([C@@H](O)C[C@@]3(C)[C@H]2CC[C@]3(O)C(=O)CO)[C@@]2(C)C=CC(=O)C=C12 [Methylprednisolone] (top concentration 10000 nM) | 13.9 | 5.4 | 14.2 | -0.7 | 22.9 | 18.5 | 31.6 | 1.5 | 5 | -2 | -2.3 | 11.6 | 33.2 | -2.3 | 18.6 | -1.6 | 30.2 | -2.3 | 32.9 | -2.3
11 | FC(F)(F)c1ccc(/C=C/c2nc(COc3ccc(CCCCn4ccnn4)cc3)co2)cc1 [Mubritinib] (top concentration 1000 nM) | 9.36 | 2.26 | 11.1 | 8.06 | 2.76 | -0.84 | 5.46 | 3.06 | 8.86 | 24 | -2.24 | 11.6 | 3.06 | 4.66 | 7.06 | 14.2 | 12.7 | 20 | 10.6 | 18.7
12 | COc1cc2c(cc1OC(C)C)[C@H](c1ccc(Cl)cc1)N(c1ccc(N(C)C[C@H]3CC[C@H](N4CCN(C)C(=O)C4)CC3)cc1)C(=O)C2 [NVP-CGM097] (top concentration 25000 nM) | 8.76 | 17.2 | 10.8 | 8.26 | 2.86 | 12.1 | -5.64 | 10.6 | -3.14 | -4.44 | 11.7 | 8.16 | 13.1 | -4.54 | 10.2 | -5.04 | 10.6 | 5.16 | 18.6 | -3.04
13 | CCOc1cc2ncc(C#N)c(Nc3ccc(OCc4ccccn4)c(Cl)c3)c2cc1NC(=O)/C=C/CN(C)C [Neratinib] (top concentration 1000 nM) | 1.78 | 1.18 | 6.58 | 1.88 | 5.68 | 7.78 | -0.62 | -0.42 | 2.38 | 1.48 | 3.68 | -0.72 | 4.98 | 1.78 | 2.78 | 0.88 | 5.38 | -0.12 | 1.48 | -0.72
14 | COc1ncc(-c2ccc3nccc(-c4ccnnc4)c3c2)cc1NS(=O)(=O)c1ccc(F)cc1F [Omipalisib] (top concentration 1000 nM) | 8.4 | 4 | 9.8 | 3.2 | 19.5 | 13.4 | -0.8 | 20.1 | 3.8 | 4.2 | 1.6 | 12.9 | 11.4 | 8.1 | 18.6 | 9.8 | 30 | 14.4 | 7.3 | -4
15 | CN1CCN(c2cc(C(=O)Nc3ccc4c(c3)-c3c(c(C(N)=O)nn3-c3ccc(F)cc3)CC4)c(Cl)cn2)CC1 [PHA-408] (top concentration 10000 nM) | 1.88 | -1.22 | 5.08 | 2.98 | 3.38 | -3.92 | 3.48 | 2.58 | -0.92 | 0.18 | 0.18 | 4.48 | -0.72 | -4.62 | 1.48 | 1.48 | 5.28 | 0.08 | 3.08 | -4.92
16 | OC[C@H]1O[C@@H](n2cnc3c2N=CNC[C@H]3O)C[C@@H]1O [Pentostatin] (top concentration 10000 nM) | -0.44 | -0.44 | 3.06 | -0.44 | 1.26 | -0.44 | -0.44 | 0.36 | -0.44 | -0.44 | -0.44 | -0.44 | -0.44 | -0.44 | -0.44 | -0.44 | -0.44 | -0.44 | 0.66 | 0.36
17 | CC(C)N(C[C@H]1O[C@@H](n2cnc3c(N)ncnc32)[C@H](O)[C@@H]1O)[C@H]1C[C@@H](CCc2nc3cc(C(C)(C)C)ccc3[nH]2)C1 [Pinometostat] (top concentration 1000 nM) | 0 | 0 | 0 | 0 | 0 | 0 | 0 | 0 | 0 | 0 | 0 | 0 | 0 | 0 | 0 | 0 | 0 | 0 | 0 | 0
18 | Cc1ccc(=O)n(-c2ccccc2)c1 [Pirfenidone] (top concentration 10000 nM) | 0 | 0 | 1.2 | 0 | 0 | 0 | 0 | 0 | 0 | 0 | 0 | 0 | 0 | 0 | 0 | 0 | 0 | 0 | 0 | 0
